Experimental findings from patent EP4653001A1, “TREATMENT, DIAGNOSIS AND/OR PROGNOSIS OF MITOCHONDRIAL DISEASES” (Universidad Autónoma de Madrid, priority 2024, dated 2025) are described below.

One test deals with 143B cells. Description: Stable isotope tracing with uniformly labeled 13C-glucose. In kind it is cell-based. As to the method:
1-5.0×10^6 cells were harvested on dry ice with 1 mL pre-chilled 80% HPLC-grade methanol (Fluka Analytical). The cell mixture was incubated for 15 min on dry ice prior to centrifugation at 18,000 × g for 10 min at 4°C. The supernatant was retained, and the remaining cell pellet was resuspended in 800 µL chilled 80% methanol and centrifuged. Supernatant was combined with the previous retention and was lyophilized using a SpeedVac (Thermo Fisher). Lyophilized samples were resuspended in 20 µL ultrapure water and subjected to metabolomics profiling using the AB/SCIEX 5500 QTRAP triple quadrupole instrument. Data analysis was performed using the GiTools software. […]
Encouraged by the beneficial effects of ME1 and because ME1-dependent NADPH production is linked to intracellular malate levels, we sought to investigate the metabolic pathways and nutrients that maintain malate production upon disruption of the ETC. It is firmly believed that in cells and tissues with defective ETC function, elevated NADH/NAD+ ratio inhibits the Pyruvate dehydrogenase complex (PDC), suppressing pyruvate entry into the mitochondria and forcing its channelling towards the Lactate Dehydrogenase (LDH) in the cytosol. […] This reaction involves addition of an unlabeled carbon by IDH2 acting in reverse relative to the canonical oxidative TCA cycle. Malate M+3 also rose more than a ~2-fold in CI-inhibited cells and was likely formed after cleavage of citrate M+5 by ATP-citrate lyase (ACLY) since this induction was blunted in ACLY KO cells. […] We hypothesized that an alternative mechanism could involve pyruvate entry into the mitochondria where it can be carboxylated to OAA by the pyruvate carboxylase (PC). […] To examine the contribution of PC to malate formation in the context of ETC dysfunction, control and PC KO cells were cultured with uniformly labeled [^13C]glucose and treated either with DMSO or Piericidin. In this labeling scheme, oxidative metabolism of glucose-derived pyruvate would give rise to TCA cycle intermediates with M+2 labeling as CO2 is removed during conversion of pyruvate to acetyl-CoA by pyruvate dehydrogenase (PDH). By contrast, carbon labels are retained if pyruvate is carboxylated by PC and would generate M+3 intermediates (Figure 3A). […] Malate and aspartate M+3/M+2 ratios, which reflect the relative contribution of PC versus PDH to metabolite labeling, were ~7-fold and ~10-fold higher respectively, in cells treated with Piericidin (Figure 3B and C). […] In this regard, it is not surprising that PC activity is favoured over PDH when the ETC is defective as it is not regulated by NADH levels.

Another test has as its system mouse cortical neurons. Description: PPP activity measurement in cortical neurons. In kind it is cell-based. As to the method:
(§1) Primary cultures of C57BL/6 mouse cortical neurons were prepared from embryos between embryonic days 16.5 and 17.5 and seeded onto pre-treated plates coated with Poly-L-lysine hydrobromide (500 µg/ml). We used Neurobasal medium without D-glucose and sodium pyruvate (ThermoFisher) to modulate D-glucose levels, depending on the experiment (2.5 mM, 5 mM, or 25 mM).
The determination of pentose-phosphate pathway (PPP) activity was conducted by assessing the difference between 14CO2 production from 1-14C-glucose, which decarboxylates through the 6-phosphogluconate dehydrogenase-catalyzed reaction, and that of 6-^14C-glucose, which decarboxylates through the tricarboxylic acid cycle.
Increased lactate secretion is considered a good indicator of enhanced glycolytic rates, which is a common feature of ETC-inhibited cells as they switch from OXPHOS to glycolysis to maintain ATP levels. […] We culture 143B cells in the presence of Piericidin for 24 h and PPP activity and lactate release, as a proxy of glycolysis, were measured. As expected, lactate detection in the media was higher in CI-inhibited cells. […] Next, we wonder if in this context, glucose can be overused by glycolysis and therefore diverted away from the PPP. Diseases associated with impaired mitochondrial function negatively impact high energy demanding tissues such as the brain. As such, neurons that are highly sensitive to ETC inhibition also rely strongly on glucose metabolism. Thus, we used mouse cortical neurons to determine the rates of glycolysis and PPP as glucose levels become limiting. Control and Piericidin treated neurons where cultured in media containing supraphysiological (25 mM), physiological (5 mM) or subphysiological concentrations of glucose (2,5 mM). […] Decreased PPP activity under low glucose (2,5 mM) correlated with a rapid decline in NADPH/NADP+ levels in CI-inhibited cells. Conversely, glucose availability had no effect on ATP levels at this timepoint.

The next test deals with primary neurons. Description: Neuron axon morphology (immunofluorescence). Conditions: CI inhibition, 100 nM 24 h, extensive axon degeneration. In kind it is cell-based, mouse. As to the method:
as §1
Neuron axon morphology was quantified in primary neurons exposed to DMSO or 100 nM piericidin for 24 h. Neurons were fixed with 4% paraformaldehyde for 10 min, blocked, and permeabilized in 0.1% Triton X-100 (Tx)-PBS with 10% fetal bovine serum for 15 minutes at room temperature. Then, neurons were incubated with the primary BIII-Tubulin antibody (1:500, ab78078, Abcam) in 0.1% Tx/10% FBS-PBS overnight at 4°C. Subsequently, wells were rinsed several times in PBS before applying the fluorochrome-conjugated secondary antibody (ThermoScientific) in 0.1% Tx/10% FBS-PBS for 1h at room temperature. Neurons were finally washed in PBS, and DAPI was added prior to the microscopic analysis. Acquired confocal images were quantified by measuring the BIII-Tubulin fluorescent integrated density and normalized by the number of DAPI-positive nuclei.

Where [1] appears, read: uniformly labeled [13C]glucose, vs DMSO.

As for `CC=C(C)C(O)C(C)C=C(C)C=CCC(C)=CCc1nc(OC)c(OC)c(O)c1C` (centres unmarked) [Piericidin, Piericidin A], in the test on 143B cells (control and PC KO cells), the “PDH-dependent labeling of aspartate and malate” value is “clearly reduced”. Besides, in the test on 143B cells (particularly aspartate and malate), the “PC-mediated labeling of TCA cycle intermediates” value is on record as “marked induction”. Besides, the “Malate M+3/M+2 ratio, higher” value in the test with 143B cells (setting [1]) is given as ~ 7 fold. Besides, in the test with 143B cells (setting [1]), the “aspartate M+3/M+2 ratio, higher” value is given as ~ 10 fold. Further, the PPP activity result in the test with mouse cortical neurons (5 mM glucose, did not reach statistical significance) is recorded as “trend towards reduced PPP activity”; in the test on mouse cortical neurons (limited glucose availability (2,5 mM), 100 nM, 16 h) it was “prominent drop”; in the test with mouse cortical neurons (neurons cultured in 25 mM glucose, 100 nM, 16 h) it was “significantly upregulation”. In addition, the neuron morphology entry in the test with primary neurons was “significant morphological alterations”.
